# Data from US10294202B2, “Pyrrolidinones as herbicides” (FMC Corporation, priority 2013, dated 2019).
# Key:
# pigweed = experiment: Test A pre-/postemergence herbicide test; type: in vivo, Amaranthus retroflexus
# Method in brief: (§1)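 Formulated compound (non-phytotoxic solvent, surfactant) sprayed pre- onto soil of seeded loam/sand pots or post- onto seedlings at 1–2 leaves; ~10 d greenhouse; 0–100 visual control rating versus untreated.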
# galium = experiment: Test C pre-/postemergence herbicide test; type: in vivo, Galium aparine; settings: for Galium plant response rating: scale 0 to 100, 0 is no effect and 100 is complete control
# Method in brief: (§2)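 Compound solutions contained surfactant in a non-phytotoxic solvent. These were sprayed onto pots of loam/sand sown with seeds, and onto young plants (2 to 18 cm, 1- to 4-leaf) in sphagnum peat–vermiculite mix. Visual injury scores (0 none, 100 complete control) were recorded after 13 to 15 days.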
# barnyardgrass = experiment: Test C pre-/postemergence herbicide test; type: in vivo, Echinochloa crus-galli; settings: for Barnyardgrass plant response rating: scale 0 to 100, 0 is no effect and 100 is complete control
# Method in brief: as §2
# wheat = experiment: Test A pre-/postemergence herbicide test; type: in vivo, Triticum aestivum; settings: Postemergence
# Method in brief: as §1
# blackgrass = experiment: Test C pre-/postemergence herbicide test; type: in vivo, Alopecurus myosuroides; settings: for Blackgrass plant response rating: scale 0 to 100, 0 is no effect and 100 is complete control
# Method in brief: as §2
# morningglory = experiment: Test C pre-/postemergence herbicide test; type: in vivo, Ipomoea coccinea; settings: for Morningglory plant response rating: scale 0 to 100, 0 is no effect and 100 is complete control
# Method in brief: as §2
# nutsedge, yellow = experiment: Test C pre-/postemergence herbicide test; type: in vivo, Cyperus esculentus; settings: for Nutsedge, Yellow plant response rating: scale 0 to 100, 0 is no effect and 100 is complete control
# Method in brief: as §2
# corn = experiment: Test C pre-/postemergence herbicide test; type: in vivo, Zea mays; settings: for Corn plant response rating: scale 0 to 100, 0 is no effect and 100 is complete control
# Method in brief: as §2
# velvetleaf = experiment: Test C pre-/postemergence herbicide test; type: in vivo, Abutilon theophrasti; settings: for Velvetleaf plant response rating: scale 0 to 100, 0 is no effect and 100 is complete control
# Method in brief: as §2
# ryegrass, Italian = experiment: Test C pre-/postemergence herbicide test; type: in vivo, Lolium multiflorum; settings: for Ryegrass, Italian plant response rating: scale 0 to 100, 0 is no effect and 100 is complete control
# Method in brief: as §2
# [1] = Postemergence, 125 g ai/ha, 0 to 100 scale, 0 no effect, 100 complete control
# [2] = preemergence, 500 g ai/ha, 0 to 100 scale
# [3] = Postemergence, 31 g ai/ha, scale 0 (no effect) to 100 (complete control)
# [4] = Postemergence, 62 g ai/ha, scale 0 to 100 (0 no effect, 100 complete control)
# [5] = Postemergence, 125 g ai/ha, scale 0 to 100 (0 no effect, 100 complete control)
# [6] = Postemergence, 250 g ai/ha, scale 0 to 100 (0 no effect, 100 complete control)
# [7] = Preemergence, 62 g ai/ha, scale 0 to 100
# [8] = Preemergence, 125 g ai/ha, scale 0 to 100 (0 no effect, 100 complete control)
# [9] = 125 g ai/ha, 0 to 100 scale, 0 no effect, 100 complete control
# [10] = Postemergence, 31 g ai/ha, scale 0 to 100 (0 no effect, 100 complete control)
# [11] = Postemergence, 62 g ai/ha, scale 0 (no effect) to 100 (complete control)
compound,measurement,setting,value
Cc1ccccc1NC(=O)C1C(=O)NCC1c1cccc(C(F)(F)F)c1 (racemic) [Compound 109],"Plant response rating, Pigweed",pigweed; [1],0
same,"Plant response rating, Pigweed","pigweed; Postemergence, 500 g ai/ha, 0 to 100 scale (0 no effect, 100 complete control)",0
same,Pigweed plant response rating,"pigweed; Preemergence, 125 g ai/ha, visual rating on 0 to 100 scale (0 no effect, 100 complete control)",0
same,"Plant response rating, Pigweed",pigweed; [2],0
same,"Plant response rating, Galium",galium; [3],0
same,"Plant response rating, Galium",galium; [4],0
same,"Plant response rating, Galium",galium; [5],30
same,"Plant response rating, Galium",galium; [6],30
same,Galium plant response rating,"galium; Preemergence, 31 g ai/ha",60
same,"Plant response rating, Galium",galium; [7],100
same,"Plant response rating, Galium",galium; [8],50
same,"Plant response rating (scale of 0 to 100), Galium","galium; Preemergence, 250 g ai/ha",100
same,"Plant response rating, Barnyardgrass",barnyardgrass; [3],0
same,"Plant response rating, Barnyardgrass",barnyardgrass; [4],0
same,"Plant response rating, Barnyardgrass",barnyardgrass; [5],0
same,"Plant response rating, Barnyardgrass",barnyardgrass; [6],45
same,Barnyardgrass plant response rating,"barnyardgrass; Preemergence, 31 g ai/ha",70
same,"Plant response rating, Barnyardgrass",barnyardgrass; [7],85
same,"Plant response rating, Barnyardgrass",barnyardgrass; [8],95
same,"Plant response rating (scale of 0 to 100; 0 is no effect, 100 is complete control), Barnyardgrass","barnyardgrass; Preemergence, 250 g ai/ha",98
same,"Plant response rating, Wheat",wheat; [9],20
same,"Plant response rating, Wheat","wheat; 500 g ai/ha, 0 to 100 scale (0 no effect, 100 complete control)",60
same,"Plant response rating, Blackgrass",blackgrass; [3],0
same,"Plant response rating, Blackgrass",blackgrass; [4],0
same,"Plant response rating, Blackgrass",blackgrass; [5],0
same,"Plant response rating, Blackgrass",blackgrass; [6],0
same,Blackgrass plant response rating,"blackgrass; Preemergence, 31 g ai/ha",0
same,"Plant response rating, Blackgrass",blackgrass; [7],60
same,"Plant response rating, Blackgrass",blackgrass; [8],90
same,"Plant response rating (scale of 0 to 100), Blackgrass","blackgrass; Preemergence, 250 g ai/ha",95
same,"Plant response rating, Morningglory",morningglory; [3],20
same,"Plant response rating, Morningglory",morningglory; [4],0
same,"Plant response rating, Morningglory",morningglory; [5],5
same,"Plant response rating, Morningglory",morningglory; [6],15
same,Morningglory plant response rating,"morningglory; Preemergence, 31 g ai/ha",0
same,"Plant response rating, Morningglory",morningglory; [7],0
same,"Plant response rating, Morningglory",morningglory; [8],5
same,"Plant response rating (scale of 0 to 100), Morningglory","morningglory; Preemergence, 250 g ai/ha",30
same,"Plant response rating, Nutsedge, Yellow","nutsedge, yellow; [3]",0
same,"Plant response rating, Nutsedge, Yellow","nutsedge, yellow; [4]",0
same,"Plant response rating, Nutsedge, Yellow","nutsedge, yellow; [5]",0
same,"Plant response rating, Nutsedge, Yellow","nutsedge, yellow; [6]",0
same,"Nutsedge, Yellow plant response rating","nutsedge, yellow; Preemergence, 31 g ai/ha",0
same,"Plant response rating, Nutsedge, Yellow","nutsedge, yellow; [7]",5
same,"Plant response rating, Nutsedge, Yellow","nutsedge, yellow; [8]",0
same,"Plant response rating (scale of 0 to 100), Nutsedge, Yellow","nutsedge, yellow; Preemergence, 250 g ai/ha",5
same,"Plant response rating, Corn",corn; [3],0
same,"Plant response rating, Corn",corn; [4],0
same,"Plant response rating, Corn",corn; [5],0
same,"Plant response rating, Corn",corn; [6],5
same,Corn plant response rating,"corn; Preemergence, 31 g ai/ha",0
same,"Plant response rating, Corn",corn; [7],5
same,"Plant response rating, Corn",corn; [8],60
same,"Plant response rating (scale of 0 to 100), Corn","corn; Preemergence, 250 g ai/ha",75
same,"Plant response rating, Velvetleaf",velvetleaf; [3],0
same,"Plant response rating, Velvetleaf",velvetleaf; [4],0
same,"Plant response rating, Velvetleaf",velvetleaf; [5],0
same,"Plant response rating, Velvetleaf",velvetleaf; [6],5
same,Velvetleaf plant response rating,"velvetleaf; Preemergence, 31 g ai/ha",0
same,"Plant response rating, Velvetleaf",velvetleaf; [7],0
same,"Plant response rating, Velvetleaf",velvetleaf; [8],0
same,"Plant response rating (scale of 0 to 100), Velvetleaf","velvetleaf; Preemergence, 250 g ai/ha",10
same,"Plant response rating, Ryegrass, Italian","ryegrass, Italian; [3]",0
same,"Plant response rating, Ryegrass, Italian","ryegrass, Italian; [4]",0
same,"Plant response rating, Ryegrass, Italian","ryegrass, Italian; [5]",0
same,"Plant response rating, Ryegrass, Italian","ryegrass, Italian; [6]",0
same,"Ryegrass, Italian plant response rating","ryegrass, Italian; Preemergence, 31 g ai/ha",0
same,"Plant response rating, Ryegrass, Italian","ryegrass, Italian; [7]",40
same,"Plant response rating, Ryegrass, Italian","ryegrass, Italian; [8]",20
same,"Plant response rating (scale of 0 to 100), Ryegrass, Italian","ryegrass, Italian; Preemergence, 250 g ai/ha",70
O=C1NCC(c2ccc(F)cc2)C1C(=O)Nc1ccc(F)c(F)c1F (racemic) [Compound 120],"Plant response rating, Pigweed","pigweed; 125 g ai/ha, visual rating, 0 to 100 scale, 0 no effect, 100 complete control, approximately 10 days, preemergence",30
same,"Plant response rating, Pigweed",pigweed; [1],20
same,"Pigweed plant response rating (0 to 100 scale, 0 is no effect, 100 is complete control)","pigweed; Postemergence, 500 g ai/ha",50
same,"Plant response rating, Pigweed",pigweed; [2],40
same,Galium plant response rating,"galium; Preemergence, 31 g ai/ha",5
same,"Plant response rating, Galium",galium; [7],95
same,"Plant response rating, Galium",galium; [8],50
same,"Plant response rating (scale of 0 to 100), Galium","galium; Preemergence, 250 g ai/ha",90
same,"Plant response rating, Barnyardgrass",barnyardgrass; [10],0
same,"Plant response rating, Barnyardgrass",barnyardgrass; [11],30
same,"Plant response rating, Barnyardgrass",barnyardgrass; [5],40
same,"Plant response rating, Barnyardgrass",barnyardgrass; [6],65
same,Barnyardgrass plant response rating,"barnyardgrass; Preemergence, 31 g ai/ha",85
same,"Plant response rating, Barnyardgrass",barnyardgrass; [7],90
same,"Plant response rating, Barnyardgrass",barnyardgrass; [8],95
same,"Plant response rating (scale of 0 to 100; 0 is no effect, 100 is complete control), Barnyardgrass","barnyardgrass; Preemergence, 250 g ai/ha",98
same,"Plant response rating, Wheat",wheat; [9],20
same,"Wheat plant response rating (0 to 100 scale, 0 is no effect, 100 is complete control)",wheat; 500 g ai/ha,60
same,"Plant response rating, Blackgrass",blackgrass; [10],0
same,"Plant response rating, Blackgrass",blackgrass; [11],0
same,"Plant response rating, Blackgrass",blackgrass; [5],0
same,"Plant response rating, Blackgrass",blackgrass; [6],0
same,Blackgrass plant response rating,"blackgrass; Preemergence, 31 g ai/ha",35
same,"Plant response rating, Blackgrass",blackgrass; [7],50
same,"Plant response rating, Blackgrass",blackgrass; [8],50
same,"Plant response rating (scale of 0 to 100), Blackgrass","blackgrass; Preemergence, 250 g ai/ha",70
same,"Plant response rating, Morningglory",morningglory; [10],0
same,"Plant response rating, Morningglory",morningglory; [11],5
same,"Plant response rating, Morningglory",morningglory; [5],0
same,"Plant response rating, Morningglory",morningglory; [6],5
same,Morningglory plant response rating,"morningglory; Preemergence, 31 g ai/ha",0
same,"Plant response rating, Morningglory",morningglory; [7],0
same,"Plant response rating, Morningglory",morningglory; [8],35
same,"Plant response rating (scale of 0 to 100), Morningglory","morningglory; Preemergence, 250 g ai/ha",40
same,"Plant response rating, Nutsedge, Yellow","nutsedge, yellow; [10]",0
same,"Plant response rating, Nutsedge, Yellow","nutsedge, yellow; [11]",0
same,"Plant response rating, Nutsedge, Yellow","nutsedge, yellow; [5]",0
same,"Plant response rating, Nutsedge, Yellow","nutsedge, yellow; [6]",0
same,"Nutsedge, Yellow plant response rating","nutsedge, yellow; Preemergence, 31 g ai/ha",0
same,"Plant response rating, Nutsedge, Yellow","nutsedge, yellow; [7]",0
same,"Plant response rating, Nutsedge, Yellow","nutsedge, yellow; [8]",0
same,"Plant response rating (scale of 0 to 100), Nutsedge, Yellow","nutsedge, yellow; Preemergence, 250 g ai/ha",0
same,"Plant response rating, Corn",corn; [10],0
same,"Plant response rating, Corn",corn; [11],0
same,"Plant response rating, Corn",corn; [5],0
same,"Plant response rating, Corn",corn; [6],0
same,Corn plant response rating,"corn; Preemergence, 31 g ai/ha",0
same,"Plant response rating, Corn",corn; [7],0
same,"Plant response rating, Corn",corn; [8],20
same,"Plant response rating (scale of 0 to 100), Corn","corn; Preemergence, 250 g ai/ha",65
same,"Plant response rating, Velvetleaf",velvetleaf; [10],25
same,"Plant response rating, Velvetleaf",velvetleaf; [11],0
same,"Plant response rating, Velvetleaf",velvetleaf; [5],5
same,"Plant response rating, Velvetleaf",velvetleaf; [6],25
same,Velvetleaf plant response rating,"velvetleaf; Preemergence, 31 g ai/ha",0
same,"Plant response rating, Velvetleaf",velvetleaf; [7],20
same,"Plant response rating, Velvetleaf",velvetleaf; [8],35
same,"Plant response rating (scale of 0 to 100), Velvetleaf","velvetleaf; Preemergence, 250 g ai/ha",40
same,"Plant response rating, Ryegrass, Italian","ryegrass, Italian; [10]",0
same,"Plant response rating, Ryegrass, Italian","ryegrass, Italian; [11]",0
same,"Plant response rating, Ryegrass, Italian","ryegrass, Italian; [5]",0
same,"Plant response rating, Ryegrass, Italian","ryegrass, Italian; [6]",10
same,"Ryegrass, Italian plant response rating","ryegrass, Italian; Preemergence, 31 g ai/ha",10
same,"Plant response rating, Ryegrass, Italian","ryegrass, Italian; [7]",5
same,"Plant response rating, Ryegrass, Italian","ryegrass, Italian; [8]",10
same,"Plant response rating (scale of 0 to 100), Ryegrass, Italian","ryegrass, Italian; Preemergence, 250 g ai/ha",30
